The results in this text go back to US20260285857A1, “BICYCLIC AND HETEROCYCLIC AMIDE COMPOUNDS” (priority 2024, published 2026).

In the first assay the test system is immunoglobulin light chain protein WIL-FL T46L. As to the kind of experiment: Differential scanning fluorimetry (thermal shift) assay. Format: binding.
Conditions: not given
(In general: DSF heats the sample and reads unfolding from a dye or from intrinsic fluorescence.)
With `Cc1cc(N2CC[C@](C)(c3ccccc3)C2)cn2nc(C34CC(CO)(CO3)C4N3CC4(CC4)NC3=O)nc12` (stereo partly drawn) [Compound 576, 6-(4-(hydroxymethyl)-1-(8-methyl-6-((R)-3-methyl-3-phenylpyrrolidin-1-yl)-[1,2,4]triazolo[1,5-a]pyridin-2-yl)-2-oxabicyclo[2.1.1]hexan-5-yl)-4,6-diazaspiro[2.4]heptan-5-one], the DSF result is “***** (key: 0-0.5° C.=*; >0.5-1 °C =**; >1-1.5° C.=***; >1.5-2.5° C.=****; >2.5° C.=*****)”.

The same assay, now with this note: Table B; temperature shift [Tm]compound-[Tm]vehicle; recombinant WIL-FL T46L.
As to `Cc1cc(N2CC[C@](C)(c3ccccc3)C2)cn2nc(C34CC(CO3)C4c3nc(NC(=O)C4CC(C)(C(=O)O)C4)n[nH]3)nc12` (some centres unmarked) [Compound 555], the DSF entry is recorded as “***** (>2.5° C.=*****)”.
The same measure, in the same setting: under `Cc1cc(N2CC[C@](C)(c3ccccc3)C2)cn2nc(C34CC(CO3)C4c3nc(N)nn3C(=O)C3CC(C)(C(=O)O)C3)nc12` (some centres unmarked) [Compound 556] stands “***** (>2.5° C.=*****)”.
Still for that read-out and setting: the entry for `Cc1cc(N2CC[C@](C)(c3ccccc3)C2)cn2nc(C34CC(CO3)C4c3nc(NC(=O)[C@@H]4C[C@H]4C(=O)O)n[nH]3)nc12` (some centres unmarked) [Compound 557] is “***** (>2.5° C.=*****)”; for `Cc1cc(N2CC[C@](C)(c3ccccc3)C2)cn2nc(C34CC(CO3)C4c3nc(NC(=O)c4cccnc4C(=O)O)n[nH]3)nc12` (some centres unmarked) [Compound 558] it is “***** (>2.5° C.=*****)”; for `Cc1cc(N2CC[C@](C)(c3ccccc3)C2)cn2nc(C34CC(CO3)C4c3nc(NC(=O)CC4(C(=O)O)CC4)n[nH]3)nc12` (some centres unmarked) [Compound 559] it is “***** (>2.5° C.=*****)”.
On the same count and under the same terms, under `Cc1cc(N2CC[C@](C)(c3ccccc3)C2)cn2nc(C34CC(CO3)C4c3nc(NC(=O)C4CC5(CC(C(=O)O)C5)C4)n[nH]3)nc12` (some centres unmarked) [Compound 560] stands “***** (>2.5° C.=*****)”; under `Cc1cc(N2CC[C@](C)(c3ccccc3)C2)cn2nc(C34CC(CO3)C4c3nc(NS(=O)(=O)[C@H]4CC[C@@H](C(=O)O)CC4)n[nH]3)nc12` (some centres unmarked) [Compound 561], “***** (>2.5° C.=*****)”; under `Cc1cc(N2CC[C@](C)(c3ccccc3)C2)cn2nc(C34CC(CO3)C4c3nc(NS(=O)(=O)[C@H]4CC[C@H](C(=O)O)CC4)n[nH]3)nc12` (some centres unmarked) [Compound 562], “***** (>2.5° C.=*****)”.
On to `CCS(=O)(=O)Nc1n[nH]c(C2C3COC2(c2nc4c(C)cc(N5CC[C@@](C)(n6ccc(C(F)(F)F)n6)C5)cn4n2)C3)n1` (some centres unmarked) [Compound 563], for which the DSF entry is recorded as “**** (>1.5-2.5° C.=****)”.
The same measure, in the same setting: the entry for `Cc1cc(N2CC[C@](C)(c3ccccc3)C2)cn2nc(C34CC(CO3)C4c3nc(NS(=O)(=O)CC(C)(C)C(=O)O)n[nH]3)nc12` (some centres unmarked) [Compound 564] is “***** (>2.5° C.=*****)”.
Still for that read-out and setting: the entry for `Cc1cc(N2CC[C@](C)(c3ccccc3)C2)cn2nc(C34CC(CO3)C4c3nc(NS(=O)(=O)C4CC(C)(C(=O)O)C4)n[nH]3)nc12` (some centres unmarked) [Compound 565] is “***** (>2.5° C.=*****)”.
On the same count and under the same terms, under `Cc1cc(N2CC[C@](C)(c3ccccc3)C2)cn2nc(C34CC(CO3)C4c3nc(N)nn3S(=O)(=O)C3CC(C)(C(=O)O)C3)nc12` (some centres unmarked) [Compound 566] stands “***** (>2.5° C.=*****)”.
On to `COC(C)(CS(=O)(=O)Nc1n[nH]c(C2C3COC2(c2nc4c(C)cc(N5CC[C@](C)(c6ccccc6)C5)cn4n2)C3)n1)C(=O)O` (some centres unmarked) [Compound 567], for which the DSF result is recorded as “**** (>1.5-2.5° C.=****)”.
Consider `Cc1cc(N2CC[C@](C)(c3ccccc3)C2)cn2nc(C34CC(CO3)C4c3nc(NS(=O)(=O)C4COC(C(=O)O)C4)n[nH]3)nc12` (some centres unmarked) [Compound 568], for which the DSF result was “***** (>2.5° C.=*****)”.
Still for that read-out and setting: under `Cc1cc(N2CC[C@](C)(c3ccccc3)C2)cn2nc(C34CC(CO)(CO3)C4C(=O)NCC(C)(C)C(=O)O)nc12` (stereo partly drawn) [Compound 569, 3-[[4-(hydroxymethyl)-1-[8-methyl-6-[(3R)-3-methyl-3-phenyl-pyrrolidin-1-yl]-[1,2,4]triazolo[1,5-a]pyridin-2-yl]-2-oxabicyclo[2.1.1]hexane-5-carbonyl]amino]-2,2-dimethyl-propanoic acid] stands “**** (>1.5-2.5° C.=****)”; under `Cc1cc(N2CC[C@](C)(c3ccccc3)C2)cn2nc(C34CC(CO)(CO3)C4c3nnn(C)n3)nc12` (some centres unmarked) [Compound 570, (5-(2-methyl-2 h-tetrazol-5-yl)-1-(8-methyl-6-((r)-3-methyl-3-phenylpyrrolidin-1-yl)-[1,2,4]triazolo[1,5-a]pyridin-2-yl)-2-oxabicyclo[2.1.1]hexan-4-yl)methanol], “***** (>2.5° C.=*****)”; under `Cc1cc(N2CC[C@](C)(c3ccccc3)C2)cn2nc(C34CC(CO)(CO3)C4c3nnnn3C)nc12` (some centres unmarked) [Compound 571], “***** (>2.5° C.=*****)”.
Same read-out and setting: under `CCC(=O)Nc1n[nH]c(C2C3(CO)COC2(c2nc4c(C)cc(N5CC[C@](C)(c6ccccc6)C5)cn4n2)C3)n1` (stereo partly drawn) [Compound 572, N-[5-[4-(hydroxymethyl)-1-[8-methyl-6-[(3R)-3-methyl-3-phenyl-pyrrolidin-1-yl]-[1,2,4]triazolo[1,5-a]pyridin-2-yl]-2-oxabicyclo[2.1.1]hexan-5-yl]-1H-1,2,4-triazol-3-yl]propanamide] stands “***** (>2.5° C.=*****)”; under `CCS(=O)(=O)Nc1nc(C2C3(CO)COC2(c2nc4c(C)cc(N5CC[C@](C)(c6ccccc6)C5)cn4n2)C3)n[nH]1` (stereo partly drawn) [Compound 573, N-[3-[4-(hydroxymethyl)-1-[8-methyl-6-[(3R)-3-methyl-3-phenyl-pyrrolidin-1-yl]-[1,2,4]triazolo[1,5-a]pyridin-2-yl]-2-oxabicyclo[2.1.1]hexan-5-yl]-1H-1,2,4-triazol-5-yl]ethanesulfonamide], “***** (>2.5° C.=*****)”; under `Cc1cc(N2CC[C@](C)(c3ccccc3)C2)cn2nc(C34CC(CO)(CO3)C4c3nc(NS(=O)(=O)CC(C)(C)C(=O)O)n[nH]3)nc12` (some centres unmarked) [Compound 574], “***** (>2.5° C.=*****)”.
Same read-out and setting: the entry for `Cc1cc(N2CC[C@](C)(c3ccccc3)C2)cn2nc(C34CC(CO)(CO3)C4C(=O)O)nc12` (some centres unmarked) [Compound 575, 4-(hydroxymethyl)-1-(8-methyl-6-((r)-3-methyl-3-phenylpyrrolidin-1-yl)-[1,2,4]triazolo[1,5-a]pyridin-2-yl)-2-oxabicyclo[2.1.1]hexane-5-carboxylic acid] is “***** (>2.5° C.=*****)”; for `Cc1cc(N2CC[C@](C)(c3ccccc3)C2)cn2nc(C34CC(CO)(CO3)C4N3CC4(COC4)NC3=O)nc12` (some centres unmarked) [Compound 577] it is “***** (>2.5° C.=*****)”; for `Cc1n[nH]c(C2C3(CO)COC2(c2nc4c(C)cc(N5CC6(CCC6c6ccccc6)C5)cn4n2)C3)n1` (centres unmarked) [Compound 578, [1-[8-methyl-6-(7-phenyl-2-azaspiro[3.3]heptan-2-yl)-[1,2,4]triazolo[1,5-a]pyridin-2-yl]-5-(3-methyl-1H1,2,4-triazol-5-yl)-2-oxabicyclo[2.1.1]hexan-4-yl]methanol] it is “***** (>2.5° C.=*****)”.
Consider `CCC1(c2ccccc2)CN(c2cc(C)c3nc(C45CC(CO)(CO4)C5c4nc(C)n[nH]4)nn3c2)C1` (centres unmarked) [Compound 579], for which the DSF result is “**** (>1.5-2.5° C.=****)”.
Take `Cc1nc([C@H]2[C@@]3(CO)CO[C@]2(c2nc4c(C)cc(N5CC[C@](C)(c6ccccc6)C5)cn4n2)C3)n[nH]1` [Compound 580, ((1R,4S,5R)-5-(5-methyl-1H-1,2,4-triazol-3-yl)-1-(8-methyl-6-((R)-3-methyl-3-phenylpyrrolidin-1-yl)-[1,2,4]triazolo[1,5-a]pyridin-2-yl)-2-oxabicyclo[2.1.1]hexan-4-yl)methanol]: the DSF result is on record as “***** (>2.5° C.=*****)”.
Same read-out and setting: the entry for `Cc1nc([C@H]2[C@]3(CO)CO[C@@]2(c2nc4c(C)cc(N5CC[C@](C)(c6ccccc6)C5)cn4n2)C3)n[nH]1` [Compound 581, ((1S,4R,5R)-5-(5-methyl-1H-1,2,4-triazol-3-yl)-1-(8-methyl-6-((R)-3-methyl-3-phenylpyrrolidin-1-yl)-[1,2,4]triazolo[1,5-a]pyridin-2-yl)-2-oxabicyclo[2.1.1]hexan-4-yl)methanol] is “***** (>2.5° C.=*****)”; for `Cc1cc(N2CC[C@](C)(c3ccccc3)C2)cn2nc(C34CC(CN)(CO3)C4CO)nc12` (stereo partly drawn) [Compound 582, (4-(aminomethyl)-1-(8-methyl-6-((R)-3-methyl-3-phenylpyrrolidin-1-yl)-[1,2,4]triazolo[1,5-a]pyridin-2-yl)-2-oxabicyclo[2.1.1]hexan-5-yl)methanol] it is “***** (>2.5° C.=*****)”.
For `CCS(=O)(=O)NCC12COC(c3nc4c(C)cc(N5CC[C@](C)(c6ccccc6)C5)cn4n3)(C1)C2CO` (stereo partly drawn) [Compound 583, N-((5-(hydroxymethyl)-1-(8-methyl-6-((R)-3-methyl-3-phenylpyrrolidin-1-yl)-[1,2,4]triazolo[1,5-a]pyridin-2-yl)-2-oxabicyclo[2.1.1]hexan-4-yl)methyl)ethanesulfonamide], the DSF entry was “***** (>2.5° C.=*****)”.
Same read-out and setting: the entry for `Cc1nc(C2C3(CNS(=O)(=O)CC(C)(C)C(=O)O)COC2(c2nc4c(C)cc(N5CC[C@](C)(c6ccccc6)C5)cn4n2)C3)n[nH]1` (stereo partly drawn) [Compound 584, 2,2-dimethyl-3-(N-((5-(5-methyl-11H-1,2,4-triazol-3-yl)-1-(8-methyl-6-((R)-3-methyl-3-phenylpyrrolidin-1-yl)-[1,2,4]triazolo[1,5-a]pyridin-2-yl)-2-oxabicyclo[2.1.1]hexan-4-yl)methyl)sulfamoyl)propanoic acid] is “***** (>2.5° C.=*****)”.
Take `COC(C)(CS(=O)(=O)NCC12COC(c3nc4c(C)cc(N5CC[C@](C)(c6ccccc6)C5)cn4n3)(C1)C2c1n[nH]c(C)n1)C(=O)O` (some centres unmarked) [Compound 585]: the DSF entry is “***** (>2.5° C.=*****)”.
The same measure, in the same setting: under `Cc1nc(C2C3(CNC(=O)CC(C)(C)C(=O)O)COC2(c2nc4c(C)cc(N5CC[C@](C)(c6ccccc6)C5)cn4n2)C3)n[nH]1` (some centres unmarked) [Compound 586] stands “***** (>2.5° C.=*****)”; under `CCS(=O)(=O)NCC12COC(c3nc4c(C)cc(N5CC[C@](C)(c6ccccc6)C5)cn4n3)(C1)C2c1n[nH]c(C)n1` (some centres unmarked) [Compound 587], “***** (>2.5° C.=*****)”; under `CCC(=O)NCC12COC(c3nc4c(C)cc(N5CC[C@](C)(c6ccccc6)C5)cn4n3)(C1)C2c1n[nH]c(C)n1` (some centres unmarked) [Compound 588], “***** (>2.5° C.=*****)”.
With `COC(C)(CC(=O)NCC12COC(c3nc4c(C)cc(N5CC[C@](C)(c6ccccc6)C5)cn4n3)(C1)C2c1nc(C)n[nH]1)C(=O)O` (some centres unmarked) [Compound 589], the DSF entry was “***** (>2.5° C.=*****)”.
